Reference: paper PMC12042115 (mLife, 2025)
Where two headings read alike, the source gives them in different places.

System: wild‐type BCG cells
Type: cell-based, M. bovis BCG
Settings: for Mean Ratio: GDI5755_2d vs DMSO_2d; for Mean Ratio / Mean Ratio (GDI5755_2d vs DMSO_2d): up-regulated; for Mean_Ratio (GDI5755_3d vs DMSO_3d): down-regulated, 3 d; for Mean Ratio (GDI5755_2d vs DMSO_2d): 2d

O=C(Oc1ccc(Cl)cc1)c1ccc(N2CCOCC2)c([N+](=O)[O-])c1 [GDI‐5755] was tested, and the “Mean Ratio” value (protein A0A0H3M8Y9 Cyclase) was 1.26, the “Mean Ratio” value (protein A0A0H3M9B9 Acetoacetate decarboxylase) was 1.28 and the “Mean Ratio” value (protein A0A0H3M9C3 DUF3039 domain-containing protein) was 1.28. The “Mean Ratio” value (protein A0A0H3M9D8 Possible conserved membrane alanine rich protein) was 1.31, the “Mean Ratio” value (protein A0A0H3M9I1 Probable conserved secreted protein) was 1.30 and the “Mean Ratio” value (protein A0A0H3M9I4 Probable membrane glycine and proline rich protein) was 1.25. The “Mean Ratio” value (protein A0A0H3M9K0 Probable penicillin-binding protein pbpA) was 1.25, the “Mean_Ratio (GDI5755_3d vs DMSO_3d)” value (protein A0A0H3M9N6, BCG_0093 (Rv0062), Glucanase) was 0.7 and the “Mean_Ratio (GDI5755_3d vs DMSO_3d)” value (protein A0A0H3M9Q0, BCG_2848c (Rv2828A), COGs COG0840) was 0.7. For the same compound, the “Mean Ratio” value (protein A0A0H3M9S4 Carrier domain-containing protein) was 1.26, the “Mean Ratio (GDI5755_2d vs DMSO_2d)” value (protein A0A0H3M9U5 Phosphatidate cytidylyltransferase) was 1.38 and the “Mean_Ratio (GDI5755_3d vs DMSO_3d)” value (protein A0A0H3M9Z8, BCG_2971c (Rv2950c), Probable fatty-acid-CoA ligase fadD29) was 0.7. The “Mean Ratio” value (protein A0A0H3M9Z9 Probable conserved transmembrane protein rich in alanine and arginine and proline) was 1.28, the “Mean Ratio” value (protein A0A0H3M143 peptidoglycan glycosyltransferase) was 1.26 and the “Mean_Ratio (GDI5755_3d vs DMSO_3d)” value (protein A0A0H3M233, BCG_0693c (Rv0644c), Methoxy mycolic acid synthase 2 mmaA2) was 0.7. For the same compound, the “Mean_Ratio (GDI5755_3d vs DMSO_3d)” value (protein A0A0H3M245, BCG_0704 (Rv0655), Possible ribonucleotide-transport ATP-binding protein ABC transporter mkl) was 0.7, the “Mean Ratio (GDI5755_2d vs DMSO_2d)” value (protein A0A0H3M252 Probable glutamine-binding lipoprotein glnH) was 1.33 and the “Mean Ratio (GDI5755_2d vs DMSO_2d)” value (protein A0A0H3M331 Uncharacterized protein) was 1.34. The “Mean_Ratio (GDI5755_3d vs DMSO_3d)” value (protein A0A0H3M363, BCG_0875c (Rv0822c), Cell envelope-associated transcriptional attenuator LytR-CpsA-Psr, subfamily A1) was 0.752, the “Mean_Ratio (GDI5755_3d vs DMSO_3d)” value (protein A0A0H3M469, BCG_1204c (MRA_1152), Probable enoyl-CoA hydratase echA10) was 0.742 and the “Mean_Ratio (GDI5755_3d vs DMSO_3d)” value (protein A0A0H3M476, BCG_0711c (Rv0662c), Ribbon-helix-helix protein CopG domain-containing protein) was 0.7. The “Mean Ratio” value (protein A0A0H3M482 Conserved transmembrane protein) was 1.29, the “Mean_Ratio (GDI5755_3d vs DMSO_3d)” value (protein A0A0H3M495, BCG_1238c (Rv1175c), Probable NADPH dependent 2,4-dienoyl-CoA reductase fadH) was 0.758 and the “Mean Ratio” value (protein A0A0H3M519 Probable conserved lipoprotein) was 1.28. The “Mean Ratio” value (protein A0A0H3M628 Probable lipoprotein lppP) was 1.31, the “Mean Ratio (GDI5755_2d vs DMSO_2d)” value (protein A0A0H3M639 Probable metal cation transporter P-type atpase G ctpG) was 1.33 and the “Mean Ratio (GDI5755_2d vs DMSO_2d)” value (protein A0A0H3M660 Conserved membrane protein) was 1.39. The “Mean Ratio” value (protein A0A0H3M672 Sirohydrochlorin cobaltochelatase) was 1.28, the “Mean Ratio” value (protein A0A0H3M707 Probable conserved integral membrane alanine and valine and leucine rich protein) was 1.26 and the “Mean_Ratio (GDI5755_3d vs DMSO_3d)” value (protein A0A0H3M735, BCG_2390c (Rv2376c), Low molecular weight antigen cfp2) was 0.7. The “Mean_Ratio (GDI5755_3d vs DMSO_3d)” value (protein A0A0H3M760, BCG_0066 (Rv0035), Probable fatty-acid-coa ligase fadD34) was 0.7, the “Mean Ratio” value (protein A0A0H3M769 Lipid/polyisoprenoid-binding YceI-like domain-containing protein) was 1.28 and the “Mean_Ratio (GDI5755_3d vs DMSO_3d)” value (protein A0A0H3M827, BCG_2840c (Rv2821c), CRISPR system Cms endoribonuclease Csm3) was 0.7. For the same compound, the “Mean_Ratio (GDI5755_3d vs DMSO_3d)” value (protein A0A0H3M844, BCG_2251 (Rv2234), Phosphotyrosine protein phosphatase ptpA) was 0.7, the “Mean Ratio” value (protein A0A0H3M847 Probable conserved transmembrane alanine rich protein) was 1.26 and the “Mean_Ratio (GDI5755_3d vs DMSO_3d)” value (protein A0A0H3M848, BCG_3111 (Rv3086), alcohol dehydrogenase, adhD) was 0.761. For the same compound, the “Mean Ratio (GDI5755_2d vs DMSO_2d)” value (protein A0A0H3M855 Acyl carrier protein) was 1.34, the “Mean Ratio” value (protein A0A0H3M918 Protein-export membrane protein SecF) was 1.28 and the “Mean_Ratio (GDI5755_3d vs DMSO_3d)” value (protein A0A0H3M922, BCG_3278c (Rv3249c), Possible transcriptional regulatory protein (Probably tetR-family)) was 0.757. The “Mean_Ratio (GDI5755_3d vs DMSO_3d)” value (protein A0A0H3M964, BCG_1004c (Rv0950c), Peptidase M23 domain-containing protein) was 0.7, the “Mean Ratio” value (protein A0A0H3M969 HNH nuclease domain-containing protein) was 1.26 and the “Mean_Ratio (GDI5755_3d vs DMSO_3d)” value (protein A0A0H3M984, BCG_3389c (Rv3323c), Probable moaD-moaE fusion protein moaX) was 0.756. The “Mean Ratio (GDI5755_2d vs DMSO_2d)” value (protein A0A0H3MA04 ATP-dependent zinc metalloprotease FtsH) was 1.34, the “Mean_Ratio (GDI5755_3d vs DMSO_3d)” value (protein A0A0H3MA19, BCG_0251 (Rv0214), Probable fatty-acid-CoA ligase fadD4) was 0.739 and the “Mean_Ratio (GDI5755_3d vs DMSO_3d)” value (protein A0A0H3MA36, BCG_3704c (Rv3646c), DNA topoisomerase 1) was 0.7. The “Mean_Ratio (GDI5755_3d vs DMSO_3d)” value (protein A0A0H3MA81, BCG_1461c (Rv1400c), Probable lipase lipH) was 0.751, the “Mean Ratio” value (protein A0A0H3MAA3 Possible conserved membrane protein) was 1.25 and the “Mean_Ratio (GDI5755_3d vs DMSO_3d)” value (protein A0A0H3MAA7, BCG_0352 (Rv0312), Conserved hypothetical proline and threonine rich protein) was 0.739. For the same compound, the “Mean Ratio (GDI5755_2d vs DMSO_2d)” value (protein A0A0H3MAB2 Conserved membrane protein) was 1.33, the “Mean_Ratio (GDI5755_3d vs DMSO_3d)” value (protein A0A0H3MAC6, BCG_0385c (Rv0346c), l-asparagine permease ansP2) was 0.7 and the “Mean Ratio (GDI5755_2d vs DMSO_2d)” value (protein A0A0H3MAC8 Possible conserved transmembrane protein) was 1.38. The “Mean_Ratio (GDI5755_3d vs DMSO_3d)” value (protein A0A0H3MAD2, BCG_0398c (Rv0360c), DUF3151 domain-containing protein) was 0.7, the “Mean Ratio” value (protein A0A0H3MAE2 Probable carbon monoxyde dehydrogenase (Medium chain)) was 1.31 and the “Mean Ratio” value (protein A0A0H3MAF8 Serine/threonine-protein kinase PknG) was 1.26. For the same compound, the “Mean_Ratio (GDI5755_3d vs DMSO_3d)” value (protein A0A0H3MAI2, BCG_0498 (Rv0458), Probable aldehyde dehydrogenase) was 0.7, the “Mean_Ratio (GDI5755_3d vs DMSO_3d)” value (protein A0A0H3MAI6, BCG_3192 (Rv3168), Aminoglycoside phosphotransferase domain-containing protein) was 0.7 and the “Mean_Ratio (GDI5755_3d vs DMSO_3d)” value (protein A0A0H3MAK6, BCG_0543 (Rv0500A), Helix-turn-helix domain-containing protein) was 0.757. The “Mean_Ratio (GDI5755_3d vs DMSO_3d)” value (protein A0A0H3MAL3, BCG_3212c (Rv3190c), Restriction endonuclease) was 0.7, the “Mean Ratio” value (protein A0A0H3MAP0 Conserved hypothetical alanine valine rich protein) was 1.28 and the “Mean Ratio” value (protein A0A0H3MAW6 Uncharacterized protein) was 1.27. For the same compound, the “Mean Ratio” value (protein A0A0H3MAY5 (BCG_0774) Possible protease IV sppA (Endopeptidase IV)) was 1.28, the “Mean_Ratio (GDI5755_3d vs DMSO_3d)” value (protein A0A0H3MB28, BCG_3433c (Rv3361c), Pentapeptide repeat protein MfpA) was 0.741 and the “Mean_Ratio (GDI5755_3d vs DMSO_3d)” value (protein A0A0H3MB50, BCG_3459 (Rv3390), Probable conserved lipoprotein lpqD) was 0.7. For the same compound, the “Mean_Ratio (GDI5755_3d vs DMSO_3d)” value (protein A0A0H3MB93, BCG_3517 (Rv3451), Cutinase) was 0.7, the “Mean_Ratio (GDI5755_3d vs DMSO_3d)” value (protein A0A0H3MB98, BCG_1906c (Rv1870c), Endonuclease) was 0.7 and the “Mean_Ratio (GDI5755_3d vs DMSO_3d)” value (protein A0A0H3MBC9, BCG_3565c (Rv3501c), Conserved hypothetical integral membrane protein yrbE4A) was 0.7.
